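Step 1: Grow cells in 96-well plates. Step 2: Expose to compound for 48 hours at 5 concentrations. Step 3: Interpolate endpoints linearly; if unreached, use highest concentration. TGI denotes the concentration required for complete inhibition of growth.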
Key:
Assay in all cases: growth of human tumour cells (NCI), 48 h
786-0 renal = test system: 786-0 renal
HCT-116 colon = test system: HCT-116 colon
HCT-15 colon = test system: HCT-15 colon
HS 578T breast = test system: HS 578T breast
HT29 colon = test system: HT29 colon
IGROV1 ovarian = test system: IGROV1 ovarian
HOP-92 NSCLC = test system: HOP-92 NSCLC
UO-31 renal = test system: UO-31 renal
TK-10 renal = test system: TK-10 renal
CAKI-1 renal = test system: CAKI-1 renal
A549 NSCLC = test system: A549 NSCLC
OVCAR-3 ovarian = test system: OVCAR-3 ovarian
OVCAR-5 ovarian = test system: OVCAR-5 ovarian
ACHN renal = test system: ACHN renal
PC-3 prostate = test system: PC-3 prostate
HL-60(TB) leukemia = test system: HL-60(TB) leukemia
MALME-3M melanoma = test system: MALME-3M melanoma
SF-295 CNS = test system: SF-295 CNS
NCI-H522 lung = test system: NCI-H522 lung
OVCAR-8 ovarian = test system: OVCAR-8 ovarian
NCI/ADR-RES ovarian = test system: NCI/ADR-RES ovarian
MDA-MB-435 = test system: MDA-MB-435
T-47D breast = test system: T-47D breast
RPMI-8226 leukemia = test system: RPMI-8226 leukemia
M14 melanoma = test system: M14 melanoma
OVCAR-4 ovarian = test system: OVCAR-4 ovarian
SN12C renal = test system: SN12C renal
MCF7 breast = test system: MCF7 breast
SNB-75 CNS = test system: SNB-75 CNS
KM12 colon = test system: KM12 colon
HCC-2998 colon = test system: HCC-2998 colon
MDA-MB-231 breast = test system: MDA-MB-231 breast
SW-620 colon = test system: SW-620 colon
SK-MEL-28 melanoma = test system: SK-MEL-28 melanoma
SK-MEL-5 melanoma = test system: SK-MEL-5 melanoma
U251 CNS = test system: U251 CNS
A498 renal = test system: A498 renal
LOX IMVI melanoma = test system: LOX IMVI melanoma
RXF 393 renal = test system: RXF 393 renal
SK-OV-3 ovarian = test system: SK-OV-3 ovarian
BT-549 breast = test system: BT-549 breast
MDA-N = test system: MDA-N
NCI-H226 lung = test system: NCI-H226 lung
NCI-H23 lung = test system: NCI-H23 lung
SK-MEL-2 melanoma = test system: SK-MEL-2 melanoma
CCRF-CEM leukemia = test system: CCRF-CEM leukemia
SF-268 CNS = test system: SF-268 CNS
SF-539 CNS = test system: SF-539 CNS
EKVX NSCLC = test system: EKVX NSCLC
SNB-19 CNS = test system: SNB-19 CNS
NCI-H460 lung = test system: NCI-H460 lung
UACC-257 melanoma = test system: UACC-257 melanoma
UACC-62 melanoma = test system: UACC-62 melanoma
HOP-62 NSCLC = test system: HOP-62 NSCLC
MOLT-4 leukemia = test system: MOLT-4 leukemia

Measured: TGI

Cc1ccc2nc(NC(=O)C(=O)C3C(=O)NC(=S)NC3=O)sc2c1
> 100 µM: all assays above

Reference: PubChem BioAssay (NCI)
